Test results published in patent US11174260B2, “Compounds and methods for the treatment of parasitic diseases” (THE BROAD INSTITUTE, INC., priority 2017, dated 2021).
Read-outs that look alike come from different tables or passages of the source.

Test system: P. falciparum Dd2
Test: In vitro P. falciparum blood-stage culture and assay
Assay type: cell-based
Conditions: 72 h incubation, SYBR Green I readout, read-out: Pf Dd2
Protocol: Strains of P. falciparum (Dd2, 3D7, D6, K1, NF54, V1/3, HB3, 7G8, FCB and TM90C2B) were obtained from the Malaria Research and Reference Reagent Resource Center (MR4). P. falciparum isolates were maintained with O-positive human blood in an atmosphere of 93% N2, 4% CO2, 3% O2 at 37° C. in complete culturing medium (10.4 g/L RPMI 1640, 5.94 g/L HEPES, 5 g/L albumax II, 50 mg/L hypoxanthine, 2.1 g/L sodium bicarbonate, 10% human serum and 43 mg/L gentamicin). Parasites were cultured in medium until parasitaemia reached 3-8%. Parasitaemia was determined by checking at least 500 red blood cells from a Giemsa-stained blood smear. For the compound screening, a parasite dilution at 2.0% parasitaemia and 2.0% haematocrit was created with medium. 25 μl of medium was dispensed into 384-well black, clear-bottom plates and 100 nl of each compound in DMSO was transferred into assay plates along with the control compound (mefloquine). Next, 25 μl of the parasite suspension in medium was dispensed into the assay plates giving a final parasitaemia of 1% and a final haematocrit of 1%. The assay plates were incubated for 72 h at 37° C. 10 μl of detection reagent consisting of 10×SYBR Green I (Invitrogen; supplied in 10,000× concentration) in lysis buffer (20 mM Tris-HCl, 5 mM EDTA, 0.16% (w/v) Saponin, 1.6% (v/v) Triton X-100) was dispensed into the assay plates. For optimal staining, the assay plates were left at room temperature for 24 h in the dark. The assay plates were read with 505 dichroic mirrors with 485 nm excitation and 530 nm emission settings in an Envision (PerkinElmer).

[1] = Plasmodium falciparum, DD2, 72 h

Compound | EC50 [1] [µM] | EC50 [µM]
COc1ccc(NC(=O)N2C[C@@H](O)[C@@H](O)CN3[C@H](CO)[C@H](c4ccc(C#Cc5cccnc5)cc4)[C@@H]3C2)cc1 [Example E22, (3S,4R,8R,9R,10S)-3,4-dihydroxy-10-(hydroxymethyl)-N-(4-methoxyphenyl)-9-(4-(pyridin-3-ylethynyl)phenyl)-1,6-diazabicyclo[6.2.0]decane-6-carboxamide] | > 0.25 | –
COc1ccc(NC(=O)N2C[C@H](O)[C@H](O)CN3[C@H](CN(C)C)[C@H](c4ccc(C#Cc5cccc(F)c5F)cc4)[C@@H]3C2)cc1 [Example E13, (3R,4S,8R,9S,10S)-9-[4-[2-(2,3-difluorophenyl)ethynyl]phenyl]-10-[(dimethylamino)methyl]-3,4-dihydroxy-N-(4-methoxyphenyl)-1,6-diazabicyclo[6.2.0]decane-6-carboxamide] | < 0.05 | –
COc1ccc(NC(=O)N2CC(CN(C)C)CCN3[C@H](CN(C)C)[C@H](c4ccc(C#Cc5ccccc5)cc4)[C@@H]3C2)cc1 (stereo partly drawn) [Example E32, (8R,9S,10S)-4,10-bis[(dimethylamino)methyl]-N-(4-methoxyphenyl)-9-[4-(2-phenylethynyl)phenyl]-1,6-diazabicyclo[6.2.0]decane-6-carboxamide] | > 0.25 | –
CN(C)C[C@@H]1[C@H](c2ccc(C#Cc3ccccc3)cc2)[C@@H]2CN(C(=O)Nc3ccc(OC4CC4)cc3)C[C@@H](O)[C@@H](O)CN12 (single isomer, unassigned) [Example E1] | < 0.05 | –
COc1ccc(NC(=O)N2C[C@@H](O)[C@@H](O)CN3[C@H](CN(C)C)[C@H](c4ccc(C#Cc5cccc(F)c5F)cc4)[C@@H]3C2)cc1 [Example E12, (3S,4R,8R,9S,10S)-9-(4-((2,3-difluorophenyl)ethynyl)phenyl)-10-((dimethylamino)methyl)-3,4-dihydroxy-N-(4-methoxyphenyl)-1,6-diazabicyclo[6.2.0]decane-6-carboxamide] | 0.05 to 0.25 | –
COc1ccc(NC(=O)N2C[C@H](O)[C@H](O)CN3[C@H](CN(C)C)[C@H](c4ccc(C#Cc5ccccc5F)cc4)[C@@H]3C2)cc1 [Example E8, (3R,4S,8R,9S,10S)-10-[(dimethylamino)methyl]-9-[4-[2-(2-fluorophenyl)ethynyl]phenyl]-3,4-dihydroxy-N-(4-methoxyphenyl)-1,6-diazabicyclo[6.2.0]decane-6-carboxamide] | 0.05 to 0.25 | –
COc1ccc(NC(=O)N2C[C@@H](O)[C@@H](O)CN3[C@H](CN(C)C(C)C)[C@H](c4ccc(C#Cc5ccccc5)cc4)[C@@H]3C2)cc1 [Example E10, (3S,4R,8R,9S,10S)-3,4-dihydroxy-10-[[isopropyl(methyl)amino]methyl]-N-(4-methoxyphenyl)-9-[4-(2-phenylethynyl)phenyl]-1,6-diazabicyclo[6.2.0]decane-6-carboxamide] | < 0.05 | –
COc1ccc(NC(=O)N2C[C@H](O)[C@H](O)CN3[C@H](CO)[C@H](c4ccc(C#Cc5cccnc5)cc4)[C@@H]3C2)cc1 [Example E23, (3R,4S,8R,9R,10S)-3,4-dihydroxy-10-(hydroxymethyl)-N-(4-methoxyphenyl)-9-(4-(pyridin-3-ylethynyl)phenyl)-1,6-diazabicyclo[6.2.0]decane-6-carboxamide] | 0.05 to 0.25 | –
CCN(CC)C[C@@H]1[C@H](c2ccc(C#Cc3ccccc3)cc2)[C@@H]2CN(C(=O)Nc3ccc(OC)cc3)C[C@@H](O)[C@@H](O)CN12 [Example E9, (3S,4R,8R,9S,10S)-10-(diethylaminomethyl)-3,4-dihydroxy-N-(4-methoxyphenyl)-9-[4-(2-phenylethynyl)phenyl]-1,6-diazabicyclo[6.2.0]decane-6-carboxamide] | < 0.05 | –
CN(C)C[C@@H]1[C@H](c2ccc(C#Cc3ccccc3)cc2)[C@@H]2CN(C(=O)Nc3ccc(OC4CC4)cc3)C[C@H](O)[C@H](O)CN12 [Example E38, (3R,4S,8R,9S,10S)-N-(4-cyclopropoxyphenyl)-10-((dimethylamino)methyl)-3,4-dihydroxy-9-(4-(phenylethynyl)phenyl)-1,6-diazabicyclo[6.2.0]decane-6-carboxamide] | < 0.05 | –

More lines, now with the values ahead:

EC50 [1] [µM] | EC50 [µM] | Compound
– | < 0.05 | COc1ccc(NC(=O)N2CCC(O)CN3[C@H](CN(C)C)[C@H](c4ccc(C#Cc5ccccc5)cc4)[C@@H]3C2)cc1 (single isomer, unassigned) [Example E17]
> 0.25 | – | COc1ccc(NC(=O)N2C[C@@H](N(C)C)CCN3[C@H](CO)[C@H](c4ccc(C#Cc5ccccc5)cc4)[C@@H]3C2)cc1 [Example E3, (4S,8R,9R,10S)-4-(dimethylamino)-10-(hydroxymethyl)-N-(4-methoxyphenyl)-9-(4-(phenylethynyl)phenyl)-1,6-diazabicyclo[6.2.0]decane-6-carboxamide]
> 0.25 | – | COc1ccc(NC(=O)N2C[C@@H](O)CCN3[C@H](CN(C)C)[C@H](c4ccc(C#Cc5ccccc5)cc4)[C@@H]3C2)cc1 [Example E24, (4S,8R,9S,10S)-10-[(dimethylamino)methyl]-4-hydroxy-N-(4-methoxyphenyl)-9-[4-(2-phenylethynyl)phenyl]-1,6-diazabicyclo[6.2.0]decane-6-carboxamide]
– | > 0.25 | COc1ccc(NC(=O)N2CCC(O)CN3[C@H](CN(C)C)[C@H](c4ccc(C#Cc5ccccc5)cc4)[C@@H]3C2)cc1 (single isomer, unassigned) [Example E16]
> 0.25 | – | COc1ccc(NC(=O)N2CC(CN(C)C)CCN3[C@H](CO)[C@H](c4ccc(C#Cc5ccccc5)cc4)[C@@H]3C2)cc1 (stereo partly drawn) [Example E31, (8R,9R,10S)-4-((dimethylamino)methyl)-10-(hydroxymethyl)-N-(4-methoxyphenyl)-9-(4-(phenylethynyl)phenyl)-1,6-diazabicyclo[6.2.0]decane-6-carboxamide]
< 0.05 | – | COc1ccc(NC(=O)N2C[C@@H](O)[C@@H](O)CN3[C@H](CN(C)C)[C@H](c4ccc(C#Cc5ccccc5)cc4)[C@@H]3C2)cc1 [Example E5, (3S,4R,8R,9S,10S)-10-((dimethylamino)methyl)-3,4-dihydroxy-N-(4-methoxyphenyl)-9-(4-(phenylethynyl)phenyl)-1,6-diazabicyclo[6.2.0]decane-6-carboxamide]
0.05 to 0.25 | – | COc1ccc(NC(=O)N2CCC(CN(C)C)CN3[C@H](CN(C)C)[C@H](c4ccc(C#Cc5ccccc5)cc4)[C@@H]3C2)cc1 (stereo partly drawn) [Example E25, (8R,9S,10S)-3,10-bis[(dimethylamino)methyl]-N-(4-methoxyphenyl)-9-[4-(2-phenylethynyl)phenyl]-1,6-diazabicyclo[6.2.0]decane-6-carboxamide]
< 0.05 | – | COc1ccc(NC(=O)N2CCCC(C)N3[C@H](CO)[C@H](c4ccc(C#Cc5ccccc5)cc4)[C@@H]3C2)cc1 (stereo partly drawn) [Example E35, (8R,9R,10S)-10-(hydroxymethyl)-N-(4-methoxyphenyl)-2-methyl-9-[4-(2-phenylethynyl)phenyl]-1,6-diazabicyclo[6.2.0]decane-6-carboxamide]
0.05 to 0.25 | – | COc1ccc(NC(=O)N2CC[C@H](N(C)C)CN3[C@H](CO)[C@H](c4ccc(C#Cc5ccccc5)cc4)[C@@H]3C2)cc1 [Example E29, (3S,8R,9R,10S)-3-(dimethylamino)-10-(hydroxymethyl)-N-(4-methoxyphenyl)-9-(4-(phenylethynyl)phenyl)-1,6-diazabicyclo[6.2.0]decane-6-carboxamide]
< 0.05 | – | COc1ccc(NC(=O)N2CCCC(C)N3[C@H](CN(C)C)[C@H](c4ccc(C#Cc5ccccc5)cc4)[C@@H]3C2)cc1 (stereo partly drawn) [Example E34, (8R,9S,10S)-10-((dimethylamino)methyl)-N-(4-methoxyphenyl)-2-methyl-9-(4-(phenylethynyl)phenyl)-1,6-diazabicyclo[6.2.0]decane-6-carboxamide]
0.05 to 0.25 | – | COc1ccc(NC(=O)N2CC[C@@H](N(C)C)CN3[C@H](CO)[C@H](c4ccc(C#Cc5ccccc5)cc4)[C@@H]3C2)cc1 [Example E28, (3R,8R,9R,10S)-3-(dimethylamino)-10-(hydroxymethyl)-N-(4-methoxyphenyl)-9-[4-(2-phenylethynyl)phenyl]-1,6-diazabicyclo[6.2.0]decane-6-carboxamide]
< 0.05 | – | COc1ccc(NC(=O)N2C[C@@H](OC)[C@@H](OC)CN3[C@H](CN(C)C)[C@H](c4ccc(C#Cc5ccccc5)cc4)[C@@H]3C2)cc1 [Example E2, (3S,4R,8R,9S,10S)-10-((dimethylamino)methyl)-3,4-dimethoxy-N-(4-methoxyphenyl)-9-(4-(phenylethynyl)phenyl)-1,6-diazabicyclo[6.2.0]decane-6-carboxamide]
> 0.25 | – | COc1ccc(NC(=O)N2C[C@H](N(C)C)CCN3[C@H](CO)[C@H](c4ccc(C#Cc5ccccc5)cc4)[C@@H]3C2)cc1 [Example E30, (4R,8R,9R,10S)-4-(dimethylamino)-10-(hydroxymethyl)-N-(4-methoxyphenyl)-9-(4-(phenylethynyl)phenyl)-1,6-diazabicyclo[6.2.0]decane-6-carboxamide]
